# From paper PMC5209880, “Mobilization of hematopoietic stem cells with the novel CXCR4 antagonist POL6326 (balixafortide) in healthy volunteers—results of a dose escalation trial” (Journal of Translational Medicine, 2017)
# Tests used:
# [1] = tested on: healthy male volunteers; assay: Phase I dose escalation trial: safety and tolerability, adverse events
# Protocol: Additional eligibility (inclusion) criteria for treatment with balixafortide were the same as for G-CSF mobilized stem cell donation. Between G-CSF mobilization/HSPC donation and study participation there was a wash-out period of at least 6 weeks.
# Study drug was administered on an in-patient basis in the phase I clinical trial unit of Goethe University Medical Center, the ‘Klinisches Studienzentrum Rhein-Main’. Volunteers were discharged 24 h after treatment, to return for a follow-up appointment 8–14 days thereafter.
# (§1) A total of 27 volunteers were treated with balixafortide. A treatment consisted of a single intravenous infusion of balixafortide in normal saline at doses of 500, 1000, 1500, 2000 and 2500 μg/kg, based on actual weight, followed by sequential clinical and blood analyses (see below). Initially conceived as a classical 3 + 3 dose escalation design, the volunteers were assigned to four groups defined by increasing dose levels of balixafortide (500, 1000, 1500, and 2000 μg/kg) administered by constant rate infusion at over 2 h. Subsequently, amendments were added to test additional modalities: Group 6 received 2500 μg/kg under the same conditions. Volunteers assigned to Group 5 received a dose level of 2000 μg/kg by an continuously increasing infusion rate (ramp-infusion instead of constant rate infusion) applied over 2 h. In group 7, a dose level of 1000 μg/kg was infused over 1 h at a constant rate and compared (intra-individually) to the 2 h infusion given with an interval of ≥4 weeks. A second balixafortide treatment was furthermore tested in volunteers from groups 2, 3 and 6 with groups 2 and 3 receiving 2500 μg/kg and group 6 given 1500 μg/kg as the second infusion. […] Thus, to allow for intra-individual comparison, 12 donors received a second dose of balixafortide (2 h constant infusion rate for all) after a minimum wash-out period of 4 weeks.
# Vital signs were monitored immediately prior to and in the first 24 h after the start of the infusion of balixafortide; serial blood samples were drawn for biochemical safety profiling and pharmacokinetic/pharmacodynamic analyses. Given the cationic nature of the compound [17] the risk of local or systemic symptoms of histamine release was identified and anti-histamine treatment was proposed (per protocol) in case of such symptoms. […] Volunteers who received prophylactic or therapeutic anti-histamine medication are listed accordingly in Table 1.
# [2] = Pharmacokinetics from serial plasma samples after intravenous infusion
# Protocol: as §1
# Plasma samples were collected at the indicated times and kept frozen until immediately before analysis.
# Serial plasma samples were assayed for balixafortide concentrations and pharmacokinetic parameters were calculated using Phoenix WinNonlin 6.4.
# [3] = tested on: CD34+ cells (HSPC); assay: Mobilization of CD34+ cells, single platform flow cytometry of blood; assay type: in vivo, human
# Protocol: A total of 27 volunteers were treated with balixafortide.
# (§2) Blood samples were collected at the indicated times (Figs. 1, 2, 3, 4, 5 and 6) and kept at room temperature (maximum 2–3 h.) until immediately before analysis. Complete blood counts were assessed with the Sysmex XT1800 hematology analyzer (Norderstedt, Germany). CD34+ cells were quantified using the single platform flow cytometry analysis with the SCE Kit [Becton–Dickinson (BD), Heidelberg, Germany] according to the manufacturer’s instructions and ISHAGE guidelines. In addition, multi-parametric flow cytometric analyses were performed to quantify co-mobilized mature cell subsets such as T (CD45+ CD3+), B (CD45+ CD19+) and NK (CD45+ CD56+ 16+) cells (Multitest, T cells, BD), T cell subpopulations (CD45+ CD3+ CD4+/CD8+, Multitest, TBNL cells, BD) and monocytes (CD45+ CD14+, all from BD). In addition, plasmacytoid dendritic cell progenitors (pro-pDCs) were identified as CD45dimCD34dimCD45RA + CD123high (all moABs from BD). Lyse-no-wash protocols were used in conjunction with BD counting beads for direct cell enumeration for CD34+ cells and T cell subsets; all other cell concentrations were calculated using frequencies relative to directly enumerated cell species, such as CD34+, CD45+ or CD3+ cells.
# [4] = tested on: leukocytes; assay: Mobilization of mature hematopoietic cells (blood counts, flow cytometry); assay type: in vivo, human; conditions: doses of 1500-2500 µg/kg
# Protocol: as §2
# [5] = tested on: healthy male volunteers; assay: Subjective rating questionnaire of G-CSF vs. balixafortide at follow-up; conditions: number of responses
# [6] = 500 μg/kg, 2 h const. infusion, n = 3 volunteers
# [7] = 1000 μg/kg, 1 h const. infusion, n = 3 volunteers
# [8] = 1000 μg/kg, 2 h const. infusion, n = 7 volunteers
# [9] = 1500 μg/kg, 2 h const. infusion, n = 7 volunteers
# [10] = 2000 μg/kg, 2 h const. infusion, n = 6 volunteers
# [11] = 2000 μg/kg, 2 h ramp infusion, n = 3 volunteers
# [12] = 2500 μg/kg, 2 h const. infusion, n = 10 volunteers
smiles,measurement,setting,value
C[C@@H]1NC(=O)[C@H](Cc2c[nH]cn2)NC(=O)[C@H](Cc2ccc(O)cc2)NC(=O)[C@@H]2CCCN2C(=O)[C@H]2CCCN2C(=O)[C@H](CCCCN)NC(=O)[C@H](CCC(N)=O)NC(=O)[C@H](Cc2ccc(O)cc2)NC(=O)[C@@H]2CSSC[C@H](NC1=O)C(=O)N[C@@H](CO)C(=O)N[C@@H](C)C(=O)N1CCC[C@@H]1C(=O)N[C@@H](CCN)C(=O)N[C@@H](CCCNC(=N)N)C(=O)N[C@@H](Cc1ccc(O)cc1)C(=O)N2 [balixafortide],"Mild skin reactions such as flushing, urticaria or local itching, volunteers reporting",[1]; 500 µg/kg,1/3
same,Infusion site erythema (volunteers with AE),[1]; [6],1
same,Volunteers with AE,[1]; [6],1
same,"Mild skin reactions such as flushing, urticaria or local itching, volunteers reporting",[1]; 1000 µg/kg,4/10
same,Pruritus (volunteers with AE),[1]; [7],1
same,Volunteers with AE,[1]; [7],1
same,BP increase (volunteers with AE),[1]; [8],2
same,Infusion site pruritus (volunteers with AE),[1]; [8],1
same,Pruritus (volunteers with AE),[1]; [8],2
same,Volunteers with AE,[1]; [8],5
same,"Mild skin reactions such as flushing, urticaria or local itching, volunteers reporting",[1]; 1500 µg/kg,2/7
same,Erythema (volunteers with AE),[1]; [9],1
same,Infusion site erythema (volunteers with AE),[1]; [9],2
same,Infusion site irritation (volunteers with AE),[1]; [9],1
same,Infusion site pruritus (volunteers with AE),[1]; [9],1
same,Pruritus (volunteers with AE),[1]; [9],1
same,Urticaria (volunteers with AE),[1]; [9],1
same,Volunteers with AE,[1]; [9],2
same,"Mild skin reactions such as flushing, urticaria or local itching, volunteers reporting",[1]; 2000 µg/kg,8/9
same,Blood CK increased (volunteers with AE),[1]; [10],2
same,Bone pain (volunteers with AE),[1]; [10],1
same,Erythema (volunteers with AE),[1]; [10],4
same,Flushing (volunteers with AE),[1]; [10],1
same,Hypoasthesia (volunteers with AE),[1]; [10],1
same,Pruritus (volunteers with AE),[1]; [10],4
same,Urticaria (volunteers with AE),[1]; [10],1
same,Volunteers with AE,[1]; [10],6
same,Flushing (volunteers with AE),[1]; [11],1
same,Pruritus (volunteers with AE),[1]; [11],2
same,Volunteers with AE,[1]; [11],2
same,"Mild skin reactions such as flushing, urticaria or local itching, volunteers reporting",[1]; 2500 µg/kg,7/10
same,Erythema (volunteers with AE),[1]; [12],7
same,Feeling hot (volunteers with AE),[1]; [12],1
same,Headache (volunteers with AE),[1]; [12],1
same,Hypoasthesia (volunteers with AE),[1]; [12],1
same,Hypoasthesia oral (volunteers with AE),[1]; [12],2
same,Muscle tightness (volunteers with AE),[1]; [12],1
same,Throat tightness (volunteers with AE),[1]; [12],1
same,Vertigo (volunteers with AE),[1]; [12],1
same,Volunteers with AE,[1]; [12],7
same,Severe adverse events (SAEs),"[1]; all doses 500-2500 µg/kg, 27 volunteers, 39 doses",No severe adverse events (SAEs) were observed
same,"Systolic blood pressure reading of >150 mmHg, considered possibly related to study drug",[1]; whole trial,2 subjects
same,"Unexplained elevation in serum creatinine kinase, considered possibly related to study drug",[1]; whole trial,2 subjects
same,Volume of distribution,"[2]; human plasma, i.v. infusion 500-2500 µg/kg, Phoenix WinNonlin 6.4, approximately",0.5 to 0.6 L/kg
same,Clearance,"[2]; human, i.v. infusion",almost equal to the glomerular filtration rate
same,Dose dependence of Cmax and AUC,"[2]; human, i.v. infusion 500-2500 µg/kg, n = 3-6",dose linearity for both Cmax and AUC
same,half-life,"[2]; human, plasma, iv",~5 h
same,Time of peak CD34+ mobilization after the end of the infusion,[3]; 500 µg/kg,1 h
same,Time of peak CD34+ mobilization after the end of the infusion,[3]; doses higher than 500 µg/kg,approximately 4 h
same,Mean peak mobilization of CD34+ cells,"[3]; doses of 1500-2500 µg/kg, single i.v. infusion, mean ± SEM",38.2 ± 2.8 CD34+ cells/µL
same,Mature cells mobilized relative to G-CSF,[4],approximately half as many mature cells as G-CSF
same,White blood counts (WBCs) reached,[4]; mean ± SEM,25.3 ± 1.4 × 10*3 WBC/µL
same,Side effects in the course of treatment: Abdominal pain,[5],0
same,Side effects in the course of treatment: Bone pain,[5],0
same,Side effects in the course of treatment: Fatigue,[5],4
same,Side effects in the course of treatment: Fever,[5],0
same,Side effects in the course of treatment: Flu-like symptoms,[5],0
same,Side effects in the course of treatment: Headache,[5],1
same,Side effects in the course of treatment: Insomnia,[5],1
same,Side effects in the course of treatment: Palpitation,[5],0
same,Side effects in the course of treatment: Skin reactions,[5],13
same,Side effects in the course of treatment: Sweating,[5],1
same,Side effects in the course of treatment: Vomiting,[5],1
